Experimental data reported in patent US20200339544A1 (JOINT STOCK COMPANY "BIOCAD", priority 2017, published 2020).
Counter-ions that a name gives are not always drawn. Like-named read-outs stand apart in the source and are kept apart here.

Assays:
[1] = test system: HCC827 (lung adenocarcinoma, SM, exon19delE746-A750); test: Antiproliferative activity on HCC827 cells (Alamar Blue); format: cell-based; conditions: Homo sapiens, antiproliferative test
How it was run: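 HCC827 cells (EGFR exon19del E746-A750), 10×10^3/well, attached 16–18 h, then exposed to compounds for 72 h at 37 °C in RPMI-1640 with 2% FBS, ≤1% DMSO. Viability by Alamar Blue fluorescence (ex 540/em 590 nm) after 3–5 h; IC50 by four-parameter logistic fit.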

[2] = test system: H1975 (lung adenocarcinoma, DM, L828R/T790M); test: Antiproliferative activity on H1975 cells (Alamar Blue); format: cell-based; conditions: for IC50: Homo sapiens, NCI-H1975, H1975 cells; for SI IC50(A549)/IC50(DM): selectivity index, A549 vs H1975 cells
How it was run: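 H1975 cells (15*10^3/well) attached 16-18 h in RPMI-1640 with 2% FBS, then exposed to compounds (≤1% DMSO final) for 72 h at 37 °C. Viability by Alamar Blue fluorescence (Ex 540/Em 590 nm) after 3-5 h; IC50 from four-parameter logistic fit.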

[3] = Chemical stability in simulated intestinal fluid (SIF); format: physicochemical; conditions: SIF without enzymes, pH 6.5; 10 μm; 2 hours at 37° C.; substance amount remaining
How it was run: (§1)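 Compound at 10 μm (diluted from 10 mM DMSO stock) incubated 2 h at 37° C in enzyme-free SGF, pH=1,4, or enzyme-free SIF, pH=6.5. HPLC peak areas before and after incubation give % compound remaining.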

[4] = test system: A549 (lung adenocarcinoma, WT); test: Antiproliferative activity on A549 cells (Alamar Blue); format: cell-based; conditions: Homo sapiens, antiproliferative test
How it was run: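 Cells seeded at 5*10^3/well in RPMI-1640 with 2% FBS, attached 16-18 h at 37° C, then exposed to compounds (≤1% DMSO) for 72 h. Alamar Blue added for 3-5 h; fluorescence read at 540/590 nm. IC50 from four-parameter logistic fit.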

[5] = Chemical stability in simulated gastric fluid (SGF); format: physicochemical; conditions: SGF without enzymes, pH 1,4; 10 μm; 2 hours at 37° C.; substance amount remaining
How it was run: as §1

HepG2 cells = test: General cytotoxicity on HepG2 cells; format: cell-based; conditions: therapeutic index, CC50 HepG2 / IC50 H1975
How it was run: (§2)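 HepG2 cells seeded at 2*10^4 cells per well and compounds added in DMEM with 2% FBS for 72 h at 37 °C. Viability read with Alamar Blue and CC50 derived as for IC50. Therapeutic index taken as HepG2 CC50 over H1975 IC50.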

[6] = General cytotoxicity on HepG2 cells; format: cell-based; conditions: human; general cytotoxicity, HepG2 cells, 72 hours, average of several tests
How it was run: as §2

[7] = average values obtained in several tests, Table 16, read-out: H1975 (DM) IC50
[8] = antiproliferative test, Table 15, read-out: IC50 H1975 (DM)

Compound | IC50 [1] | IC50 [2, 7] | IC50 [2, 8] | SI IC50(A549)/IC50(DM) [2] | Stability in SIF, % [3] | IC50 [4] | Stability in SGF, % [5] | TI, CC50/IC50 (HepG2 cells) | CC50 at 72 h [6]
C=CC(=O)Nc1cc(Nc2nccc(C(=O)c3ccc(N4CCC4)cc3)n2)c(OC)cc1N(C)CCN(C)C [EGFR_3365_58, N-(5-((4-(4-(azetidin-1-yl)benzoyl)pyrimidin-2-yl)amino)-2-((2-(dimethylamino)ethyl)(methyl)amino)-4-methoxyphenyl)acrylamide] | 6.23 nM | 8.1 nM | 10.5 nM | >1235 | 100.0% | > 10000 nM | 89.9% | 4241 | 44400 nM
C=CC(=O)Nc1cc(Nc2nccc(C(=O)c3ccc(N4CC(OC)C4)cc3)n2)c(OC)cc1N(C)CCN(C)C [EGFR_3365_61, N-(2-((2-(dimethylamino)ethyl)(methyl)amino)-4-methoxy-5-((4-(4-(3-methoxyazetidin-1-yl)benzoyl)pyrimidin-2-yl)amino)phenyl)acrylamide] | 5.77 nM | 8.1 nM | 8.12 nM | 2884 | 98.8% | 23400 nM | 100.0% | 5296 | 43000 nM
C=CC(=O)Nc1cc(Nc2nccc(C(=O)c3ccc(N4CCN(C)CC4)cc3)n2)c(OC)cc1N(C)CCN(C)C [EGFR_3365_62, N-(2-((2-(dimethylamino)ethyl)(methyl)amino)-4-methoxy-5-((4-(4-(4-methylpiperazin-1-yl)benzoyl)pyrimidin-2-yl)amino)phenyl)acrylamide formate] | 12.1 nM | 22.8 nM | 60.8 nM | 539 | 100.0% | 12300 nM | 100.0% | 512 | 31100 nM
C=CC(=O)Nc1cc(Nc2nccc(C(=O)c3ccc(N4CCCC4)cc3)n2)c(OC)cc1N(C)CCN(C)C [EGFR_3365_63, N-(2-((2-(dimethylamino)ethyl)(methyl)amino)-4-methoxy-5-((4-(4-(pyrrolidin-1-yl)benzoyl)pyrimidin-2-yl)amino)phenyl)acrylamide] | 4.27 nM | 2 nM | 5.79 nM | 5383 | 100.0% | 10800 nM | 100.0% | 2239 | 13000 nM
C=CC(=O)Nc1cc(Nc2nccc(C(=O)c3ccc(OCCCC)cc3)n2)c(OC)cc1N(C)CCN(C)C [EGFR_3365_66, N-(5-((4-(4-butoxybenzoyl)pyrimidin-2-yl)amino)-2-((2-(dimethylamino)ethyl)(methyl)amino)-4-methoxyphenyl)acrylamide] | 12.8 nM | 34.7 nM | 34.7 nM | 134 | 96.5% | 4640 nM | 100.0% | 278 | 9640 nM
C=CC(=O)Nc1cc(Nc2nccc(C(=O)c3ccc(OCC)cc3OCC)n2)c(OC)cc1N(C)CCN(C)C [EGFR_3365_68, N-(5-((4-(2,4-diethoxybenzoyl)pyrimidin-2-yl)amino)-2-((2-(dimethylamino)ethyl) (methyl)amino)-4-methoxyphenyl)acrylamide] | 19.1 nM | 34.6 nM | 34.6 nM | 235 | 98.2% | 8140 nM | 100.0% | 825 | 28600 nM
C=CC(=O)Nc1cc(Nc2nccc(C(=O)c3ccc(OC)cc3OC)n2)c(OC)cc1N(C)CCN(C)C [EGFR_3365_69, N-(5-((4-(2,4-dimethoxybenzoyl)pyrimidin-2-yl)amino)-2-((2-(dimethylamino)ethyl)(methyl)amino)-4-methoxyphenyl)acrylamide] | 2.46 nM | 7.9 nM | 7.93 nM | >1261 | 100.0% | > 10000 nM | 100.0% | 6549 | 51900 nM
C=CC(=O)Nc1cc(Nc2nccc(C(=O)c3ccc(OCCC)cc3OCCC)n2)c(OC)cc1N(C)CCN(C)C [EGFR_3365_70, N-(2-((2-(dimethylamino)ethyl)(methyl)amino)-5-((4-(2,4-dipropoxybenzoyl)pyrimidin-2-yl)amino)-4-methoxyphenyl)acrylamide] | 36.8 nM | 203 nM | 203 nM | 22 | 98.6% | 4390 nM | 100.0% | 56 | 11500 nM
C=CC(=O)Nc1cc(Nc2nccc(C(=O)c3ccc(N(CC)CC)cc3)n2)c(OC)cc1N(C)CCN(C)C [EGFR_3365_72, N-(5-((4-(4-(diethylamino)benzoyl)pyrimidin-2-yl)amino)-2-((2-(dimethylamino)ethyl)(methyl)amino)-4-methoxyphenyl)acrylamide] | 13.5 nM | 11.5 nM | 11.5 nM | 932 | 91.5% | 10700 nM | 100.0% | 1408 | 16200 nM
C=CC(=O)Nc1cc(Nc2nccc(C(=O)c3ccc(N(C)C)cc3)n2)c(OC)cc1N(C)CCN(C)C [EGFR_3365_73, N-(5-((4-(4-(dimethylamino)benzoyl)pyrimidin-2-yl)amino)-2-((2-(dimethylamino)ethyl) (methyl)amino)-4-methoxyphenyl)acrylamide] | 4.47 nM | 9.5 nM | 10.3 nM | 1678 | 100.0% | 16000 nM | 100.0% | 3465 | 35600 nM
C=CC(=O)Nc1cc(Nc2cc(C(=O)c3ccc(-c4cnn(C)c4)cc3)ccn2)c(OC)cc1N(C)CCN(C)C [EGFR_3365_85, N-(2-((2-(dimethylamino)ethyl)(methyl)amino)-4-methoxy-5-((4-(4-(1-methyl-1H-pyrazol-4-yl)benzoyl)pyridin-2-yl)amino)phenyl) acrylamide] | 18 nM | 138 nM | 138 nM | 10 | 98.4% | 1410 nM | 100.0% | 153 | 21200 nM
